The values that follow come from patent US20070060607A1, “4-amino-thieno[3,2-c] pyridine-7-carboxylic acid derivatives” (priority 2005, published 2007).

Each structure is given as a SMILES string.

The assay deals with T1, c-Raf (Homo sapiens, UniProt P04049).
T1 construct: made in house; host or cells: baculovirus Hi5 insect cells, co-expressed with v-src-FLAG
T1 sequence (P04049 whole entry): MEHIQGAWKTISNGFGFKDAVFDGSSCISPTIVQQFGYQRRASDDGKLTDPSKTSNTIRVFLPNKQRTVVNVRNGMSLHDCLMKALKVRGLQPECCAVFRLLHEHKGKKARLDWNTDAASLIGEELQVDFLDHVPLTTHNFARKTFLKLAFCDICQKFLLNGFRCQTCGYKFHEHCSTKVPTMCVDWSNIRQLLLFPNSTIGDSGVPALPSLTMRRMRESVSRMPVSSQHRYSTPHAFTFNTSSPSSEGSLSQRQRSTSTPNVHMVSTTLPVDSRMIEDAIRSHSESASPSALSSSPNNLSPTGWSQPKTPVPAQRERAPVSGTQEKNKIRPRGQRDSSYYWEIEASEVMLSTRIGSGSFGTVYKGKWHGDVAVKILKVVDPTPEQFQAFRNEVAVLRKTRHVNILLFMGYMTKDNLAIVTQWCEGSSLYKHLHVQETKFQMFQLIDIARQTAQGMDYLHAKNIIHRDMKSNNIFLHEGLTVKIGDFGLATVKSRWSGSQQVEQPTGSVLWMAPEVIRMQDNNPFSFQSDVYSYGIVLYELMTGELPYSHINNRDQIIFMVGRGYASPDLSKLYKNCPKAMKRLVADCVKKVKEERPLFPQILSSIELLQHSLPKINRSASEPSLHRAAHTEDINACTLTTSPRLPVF
The assay can be described thus: In vitro kinase assay: c-Raf HTRF assay with 6H-MEK as substrate. Type of assay: biochemical. The following applies: 6H-MEK substrate, dose response. As for the experimental part: In vitro enzyme activity was determined with c-Raf using a HTRF assay with 6H-MEK as substrate (Dose Response).
The assay utilizes 6H-MEK as the substrate. Upon c-Raf phosphorylation, phosphorylated 6H-MEK is detected with rabbit anti-phospho-MEK1/2, Eu-labeled anti-rabbit, and APC-labeled anti-6H antibodies.
c-Raf enzyme was cloned human c-Raf with EE-tag and was phosphorylated (co-expressed with v-src-FLAG in baculovirus Hi5 cells), 0.2 mg/mL (2.74 μM assuming a molecular weight of 73 kD) and stored at −15° C. Wild-type full-length 6H-MEK was used as substrate, 4.94 mg/mL (154.4 μM assuming a MW of 32 kD) and stored at −15° C.
The following antibodies were used in the detection step: Rabbit α-P-(Ser 217/221)-MEK-1/2 Ab (from Cell Signaling, Cat. # 9121S, Lot 4); Eu-α-rabbit IgG (from Wallac, Cat. # AD0083, Lot 107557, labeling date Jun. 21, 2002, 8 Eu/protein, 580 μg/mL, 3.63 μM); α-6H-SureLight-APC (from Martek, Cat. #AD0059H, Lot E011ABO1, 3.15 μM).
Assays were read with Envision from PerkinElmer, HTRF reading mode with 412 mirrors.
Assays were performed with Costar 384 all-black plates, 120 μL (Cat. # 3710).
Test compounds were dispensed in Weidman 384 polypropylene plates (REMP).
Assay Procedure: • Prepare Kinase Assay Buffer (KAB): 50 mM HEPES (HyClone) pH7, 10 mM MgCl2, 1 mM DTT, 0.1 mM […], and 0.2 mg/mL BSA. • Prepare 6H-MEK (150 nM) in KAB. Add 40 μL/well to a Weidman plate. • Prepare ATP (66 μM) in KAB. • Prepare c-Raf (60 nM) in KAB. Add 25 μL/well to a Weidman plate. • Dilute compounds to 2.4 mM in DMSO. Perform 10-point 3× dilution in DMSO. • Withdraw 2.5 ul/well of DMSO solution and add to 27.5 μL/well ATP solution in (3). • Add 12 μL/well 6H-MEK to the assay plate on the Cybiwell, followed by 6 μL/well of solution in (5) and 6 μL/well of solution in (4) for a DMSO concentration of 2.1% during MEK phosphorylation. • Incubate at 37° C. for 30 minutes. • Prepare rabbit α-P-(Ser 217/221)-MEK-1/2 Ab (1:225 from stock) in AB1: 50 mM HEPES pH7, 0.2 mg/mL BSA, and 53 mM EDTA. • To stop reaction, add 6 μL/well of solution from (8) to the assay plate and incubate at 37° C. for 30 minutes. • Prepare Eu-α-rabbit IgG (9 nM) and α-6H-SureLight-APC (120 nM) in AB2: 50 mM HEPES pH7 and 0.2 mg/mL BSA. • Add 6 μL/well of solution from (10) to the assay plate. • For determining the spectrum cross talk factor, prepare 2 samples following steps (6) to (9). For the blank sample, add 6 μL/well of AB2. For the cross talk factor sample, add 6 μL/well of Eu-anti rabbit IgG (9 nM). • Incubate at 37° C. for 1 hour.
Read HTRF signals at 615 nm and 665 nm on the Envision. Normalize HTRF signals after spectrum cross-talk correction.
As usually defined, the IC50 is the midpoint of a concentration-inhibition curve. For the compound `CCOC(=O)c1cnc(N)c2c(COc3cccc(OCc4ccccc4)c3)csc12` [Example 2, 4-Amino-3-(3-benzyloxy-phenoxymethyl)-thieno[3,2-c]pyridine-7-carboxylic acid ethyl ester], the IC50 stood at 836 nM. For `CCOC(=O)c1cnc(N)c2c(COc3cccc(OCc4ccc(OC)c(C(F)(F)F)c4)c3)csc12` [Example 18, 4-Amino-3-[3-(4-methoxy-3-trifluoromethyl-benzyloxy)-phenoxymethyl]-thieno[3,2-c]pyridine-7-carboxylic acid ethyl ester], the 50% inhibitory concentration (IC50) worked out at 324 nM. As to `Nc1ncc(C(=O)NCCO)c2scc(COc3cccc(OCc4cccc(Cl)c4)c3)c12` [Example 7, 4-Amino-3-[3-(3-chloro-benzyloxy)-phenoxymethyl]-thieno[3,2-c]pyridine-7-carboxylic acid (2-hydroxy-ethyl)-amide], the half-inhibitory concentration (IC50) came out at 22 nM. The figure for `CCOC(=O)c1cnc(N)c2c(COc3cccc(OCc4cccc(OC)c4)c3)csc12` [Example 14, 4-Amino-3-[3-(3-methoxy-benzyloxy)-phenoxymethyl]-thieno[3,2-c]pyridine-7-carboxylic acid ethyl ester] is 2020 nM.
